Patent US20140377340A1, “HLA-DR BINDING PEPTIDES AND THEIR USES” (priority 2007, published 2014)

Legend:
[1] = system: 15 different HLA-DR molecules; assay: HLA-DR binding assays, panel of 15 different HLA-DR molecules (breadth of binding); details: number of the 15 HLA-DR molecules bound (binders: 1000 nM or better)
purified HLA DRB1*0401 = target: T1, purified HLA DRB1*0401 (Homo sapiens, UniProt P01903+P01911, A100K/A169T/F76Y/I96L/K127E/L162R/M171V/N62H/P40V/Q125Y/R42H/S133A/S149N/S66Y/V115G/V209L/W38E); assay: HLA-DR radioligand binding inhibition assay, DRB1*0401; details: IC50 nM purified HLA DRB1 *0401, purified HLA DRB1*0401
T1 construct: purified from EBV transformed homozygous cell lines or single MHC allele transfected 721.221, C1R, or fibroblast lines; made in house
Procedure: (§1) Instead, wells of an opaque white 96-well Optiplate (Packard) are coated with 3 μg (100 μl@ 30 μg/ml) of HLA-specific antibody (Ab) that “capture” complexes of radiolabeled MHC and unlabeled peptide transferred from the molecular binding assay plate in 100 μl of 0.05% NP40/PBS. After a 3-hour incubation period, the supernatant is decanted and scintillation fluid (Microscint 20) added. Captured complexes are then measured on a microplate scintillation and luminescence counter (TopCount NXTTM; Packard).
(§2) HLA-DR purification. Fifteen distinct HLA-DR molecules were used in quantitative assays to measure the binding of peptides to solubilized HLA-DR molecules. […] Briefly, columns of inactivated Sepharose CL4B and Protein A Sepharose were used as pre-columns. HLA-DR molecules were captured by passage of lysates over LB3.1 monoclonal antibody (anti-HLA-DRA) columns. Antibody columns were washed with 10 mM Tris-HCL, pH8.0 with 1% (v/v) NP-40, followed by PBS containing 0.4% (w/v) n-octylglucoside.
(§3) Briefly, 1-10 nM of radiolabeled peptide was co-incubated for 2 days at either room temperature or 37° C. with 1 μM to 1 nM purified HLA-DR molecules in the presence of a cocktail of protease inhibitors. Assays were performed at various pH conditions, ranging from pH 4 to pH 7. […] After incubation, the percentage of HLA-DR-bound radioactivity is determined by capturing HLA-DR/peptide complexes on Optiplates (Packard Instruments, Meriden, Conn.) coated with the LB3.1 antibody and determining bound counts per minute using the TopCount microscintillation counter (Packard Instruments).

purified HLA DRB1*1101 = target: T2, purified HLA DRB1*1101 (Homo sapiens, UniProt P01903+P01911, A100R/A169T/A87E/I96F/K41T/L162R/M171V/P40S/Q125H/Q178H/Q39Y/Q99D/R42S/S66Y/T262R/V115G/W38E); assay: HLA-DR radioligand binding inhibition assay, DRB1*1101; details: IC50 nM purified HLA DRB1 *1101, purified HLA DRB1*1101
T2 construct: purified from EBV transformed homozygous cell lines or single MHC allele transfected 721.221, C1R, or fibroblast lines; made in house
Procedure: as §1, §2, §3

purified HLA DRB1*1501 = target: T3, purified HLA DRB1*1501 (Homo sapiens, UniProt P01903+P01911); assay: HLA-DR radioligand binding inhibition assay, DRB1*1501
T3 construct: purified from EBV transformed homozygous cell lines or single MHC allele transfected 721.221, C1R, or fibroblast lines; made in house
Procedure: as §1, §2, §3

purified HLA DRB1*0405 = target: T4, purified HLA DRB1*0405 (Homo sapiens, UniProt P01903+P01911, A100R/A169T/D86S/F76Y/I96L/K127E/L162R/M171V/N62H/P40V/Q125Y/R42H/S133A/S149N/S66Y/V115G/V209L/W38E); assay: HLA-DR radioligand binding inhibition assay, DRB1*0405; details: IC50 nM purified HLA DRB1 *0405, purified HLA DRB1*0405
T4 construct: purified from EBV transformed homozygous cell lines or single MHC allele transfected 721.221, C1R, or fibroblast lines; made in house
Procedure: as §1, §2, §3

purified HLA DRB5*0101 = target: T5, purified HLA DRB5*0101 (Homo sapiens, UniProt P01903+Q30154); assay: HLA-DR radioligand binding inhibition assay, DRB5*0101; details: IC50 nM purified HLA DRB5 *0101, purified HLA DRB5*0101
T5 construct: purified from EBV transformed homozygous cell lines or single MHC allele transfected 721.221, C1R, or fibroblast lines; made in house
Procedure: as §1, §2, §3

T2 sequence (P01903 26-254, other chains not shown): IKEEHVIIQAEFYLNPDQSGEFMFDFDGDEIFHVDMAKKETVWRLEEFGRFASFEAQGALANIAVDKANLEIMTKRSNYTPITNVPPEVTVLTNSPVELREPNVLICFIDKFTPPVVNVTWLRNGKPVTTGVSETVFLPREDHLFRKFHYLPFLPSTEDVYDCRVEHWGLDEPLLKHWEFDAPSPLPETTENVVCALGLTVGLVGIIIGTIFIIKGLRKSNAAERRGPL

## CC[C@H](C)[C@H](NC(=O)[C@H](CC(C)C)NC(=O)[C@H](C)NC(=O)[C@H](CC(C)C)NC(=O)CNC(=O)[C@H](CO)NC(=O)CNC(=O)[C@H](CC(C)C)NC(=O)[C@H](CCC(=O)O)NC(=O)[C@H](CCCNC(=N)N)NC(=O)[C@H](CC(C)C)NC(=O)[C@H](CO)NC(=O)[C@H](CCCNC(=N)N)NC(=O)[C@@H](N)CC(C)C)C(=O)N[C@@H](Cc1c[nH]cn1)C(=O)O [Peptide 9019.0057]
[1]
  Total XRN: 12

## CC[C@H](C)[C@H](NC(=O)[C@@H](NC(=O)[C@H](CC(C)C)NC(=O)[C@H](CCCCN)NC(=O)[C@H](C)NC(=O)[C@@H](N)[C@@H](C)O)[C@@H](C)O)C(=O)N[C@@H](CCC(=O)O)C(=O)N[C@@H](CO)C(=O)N[C@H](C(=O)N1CCC[C@H]1C(=O)N[C@@H](Cc1ccccc1)C(=O)N[C@@H](CC(N)=O)C(=O)N[C@H](C(=O)N[C@@H](C)C(=O)N[C@@H](CCC(=O)O)C(=O)O)C(C)C)[C@@H](C)O [Peptide 9019.0106]
[1]
  Total XRN: 9

## CC[C@H](C)[C@H](NC(=O)[C@@H](NC(=O)[C@H](Cc1c[nH]cn1)NC(=O)[C@H](CC(C)C)NC(=O)[C@@H](NC(=O)[C@H](CC(C)C)NC(=O)[C@@H](N)Cc1ccccc1)[C@@H](C)O)C(C)C)C(=O)N[C@@H](CCCCN)C(=O)N[C@@H](CO)C(=O)N[C@@H](CC(=O)O)C(=O)N[C@@H](CC(C)C)C(=O)N[C@H](C(=O)N[C@@H](CC(N)=O)C(=O)N[C@@H](CCC(=O)O)C(=O)N[C@@H](CCC(=O)O)C(=O)O)C(C)C [Peptide 9019.0114]
[1]
  Total XRN: 11

## CC[C@H](C)[C@H](NC(=O)[C@H](CC(N)=O)NC(=O)[C@@H]1CCCN1C(=O)[C@@H](NC(=O)[C@H](Cc1ccccc1)NC(=O)[C@H](CC(C)C)NC(=O)[C@H](CCC(=O)O)NC(=O)[C@@H](N)CCC(N)=O)[C@@H](C)CC)C(=O)N[C@H](C(=O)N[C@H](C(=O)N[C@@H](CC(N)=O)C(=O)N[C@@H](CC(N)=O)C(=O)N[C@@H](CO)C(=O)NCC(=O)N[C@@H](CO)C(=O)O)C(C)C)[C@@H](C)O [Peptide 9019.0123]
[1]
  Total XRN: 9

## EVLILVHNLPQHLFQ [Peptide 9019.0107]
[1]
  Total XRN: 14

## CSCC[C@H](NC(=O)[C@H](CCCCN)NC(=O)[C@H](CS)NC(=O)[C@H](CCC(N)=O)NC(=O)[C@H](CCCCN)NC(=O)[C@H](CC(C)C)NC(=O)[C@H](CC(N)=O)NC(=O)[C@H](Cc1ccc(O)cc1)NC(=O)[C@H](CC(C)C)NC(=O)CN)C(=O)N[C@@H](CO)C(=O)N[C@@H](CC(C)C)C(=O)N[C@@H](CC(N)=O)C(=O)NCC(=O)N[C@@H](CCC(N)=O)C(=O)O [Peptide 9019.0191]
[1]
  Total XRN: 6

## CC[C@H](C)[C@H](NC(=O)[C@H](CCC(N)=O)NC(=O)[C@H](CCCNC(=N)N)NC(=O)[C@H](CC(N)=O)NC(=O)CNC(=O)[C@H](CC(=O)O)NC(=O)[C@@H](NC(=O)[C@H](CCCNC(=N)N)NC(=O)[C@H](CCC(=O)O)NC(=O)CNC(=O)[C@H](CCCCN)NC(=O)[C@H](Cc1ccc(O)cc1)NC(=O)[C@H](Cc1c[nH]c2ccccc12)NC(=O)[C@H](CO)NC(=O)[C@@H](N)Cc1ccc(O)cc1)C(C)C)C(=O)O [Peptide 9019.0108]
[1]
  Total XRN: 8

## CC[C@H](C)[C@H](NC(=O)[C@H](CC(C)C)NC(=O)[C@H](CC(C)C)NC(=O)[C@H](CO)NC(=O)[C@H](C)NC(=O)[C@H](CC(N)=O)NC(=O)[C@@H]1CCCN1C(=O)[C@H](Cc1ccc(O)cc1)NC(=O)[C@@H](NC(=O)[C@@H](NC(=O)[C@H](CCC(=O)O)NC(=O)[C@H](CCCNC(=N)N)NC(=O)CN)[C@@H](C)CC)[C@@H](C)CC)C(=O)N[C@@H](CCC(N)=O)C(=O)N[C@@H](CC(N)=O)C(=O)O [Peptide 9019.0112]
[1]
  Total XRN: 10

## CC[C@H](C)[C@H](NC(=O)[C@@H](NC(=O)[C@@H](NC(=O)[C@H](Cc1ccccc1)NC(=O)[C@H](CCCNC(=N)N)NC(=O)[C@H](CCC(N)=O)NC(=O)[C@@H]1CCCN1C(=O)[C@H](CC(=O)O)NC(=O)[C@H](CCCNC(=N)N)NC(=O)[C@H](C)NC(=O)[C@H](CCSC)NC(=O)[C@H](CCCNC(=N)N)NC(=O)[C@H](CO)NC(=O)[C@@H](N)Cc1ccccc1)C(C)C)C(C)C)C(=O)N[C@@H](CCC(N)=O)C(=O)O [Peptide 9019.0004]
[1]
  Total XRN: 10

## CC(C)[C@H](NC(=O)[C@H](Cc1ccccc1)NC(=O)[C@H](Cc1c[nH]c2ccccc12)NC(=O)[C@H](CO)NC(=O)[C@H](Cc1ccc(O)cc1)NC(=O)[C@@H](N)CCC(N)=O)C(=O)N[C@@H](CC(N)=O)C(=O)NCC(=O)N[C@H](C(=O)N[C@@H](Cc1ccccc1)C(=O)N[C@@H](CCC(N)=O)C(=O)N[C@@H](CCC(N)=O)C(=O)N[C@@H](CO)C(=O)N[C@H](C(=O)N[C@@H](CCC(N)=O)C(=O)O)[C@@H](C)O)[C@@H](C)O [Peptide 9019.0122]
Purified HLA DRB1*0401
  IC50: 21 nM
Purified HLA DRB1*1101
  IC50: 230 nM
Purified HLA DRB1*1501
  IC50: > 20000 nM

## CC(C)C[C@H](NC(=O)[C@H](CO)NC(=O)[C@H](C)NC(=O)[C@H](CC(N)=O)NC(=O)[C@@H](NC(=O)[C@@H]1CCCN1C(=O)[C@H](CC(C)C)NC(=O)[C@H](Cc1ccc(O)cc1)NC(=O)[C@@H](NC(=O)[C@@H](N)CC(C)C)[C@@H](C)O)[C@@H](C)O)C(=O)N[C@@H](CO)C(=O)N[C@@H](Cc1ccccc1)C(=O)N[C@@H](CC(C)C)C(=O)N[C@@H](CCC(N)=O)C(=O)N[C@@H](CC(=O)O)C(=O)O [Peptide 9019.0031]
[1]
  Total XRN: 12

## CC(C)C[C@H](NC(=O)[C@@H](N)Cc1ccc(O)cc1)C(=O)N[C@@H](Cc1c[nH]c2ccccc12)C(=O)N[C@@H](Cc1c[nH]c2ccccc12)C(=O)N[C@H](C(=O)N[C@@H](CC(N)=O)C(=O)N[C@@H](CC(N)=O)C(=O)N[C@@H](CCC(N)=O)C(=O)N[C@@H](CO)C(=O)N[C@@H](CC(C)C)C(=O)N1CCC[C@H]1C(=O)N[C@H](C(=O)N[C@@H](CO)C(=O)N1CCC[C@H]1C(=O)N[C@@H](CCCNC(=N)N)C(=O)O)C(C)C)C(C)C [Peptide 9019.0126]
[1]
  Total XRN: 10

## CC(C)C[C@H](NC(=O)[C@H](CO)NC(=O)[C@H](CC(C)C)NC(=O)[C@H](CC(N)=O)NC(=O)[C@@H](NC(=O)CNC(=O)[C@@H]1CCCN1C(=O)[C@H](CCCNC(=N)N)NC(=O)[C@H](Cc1ccc(O)cc1)NC(=O)[C@H](Cc1ccc(O)cc1)NC(=O)[C@@H](NC(=O)[C@H](Cc1ccc(O)cc1)NC(=O)[C@@H](N)CO)[C@@H](C)O)C(C)C)C(=O)N[C@@H](CO)C(=O)N[C@@H](CS)C(=O)O [Peptide 9019.0128]
[1]
  Total XRN: 10

## CC[C@H](C)[C@H](NC(=O)[C@@H](NC(=O)[C@@H](NC(=O)[C@@H](NC(=O)[C@@H](NC(=O)[C@@H](NC(=O)[C@@H](N)CCCNC(=N)N)[C@@H](C)O)[C@@H](C)O)C(C)C)[C@@H](C)O)[C@@H](C)O)C(=O)N[C@H](C(=O)N[C@H](C(=O)N[C@@H](Cc1ccc(O)cc1)C(=O)N[C@@H](C)C(=O)N[C@@H](CCC(=O)O)C(=O)N1CCC[C@H]1C(=O)N1CCC[C@H]1C(=O)N[C@@H](CCCCN)C(=O)O)C(C)C)[C@@H](C)O [Peptide 9019.0124]
Purified HLA DRB1*0405
  IC50: 32 nM
Purified HLA DRB1*1101
  IC50: > 20000 nM
Purified HLA DRB1*1501
  IC50: 83 nM

## CC[C@H](C)[C@H](NC(=O)[C@@H](NC(=O)[C@@H]1CCCN1C(=O)[C@H](CC(=O)O)NC(=O)[C@@H](N)CO)C(C)C)C(=O)N[C@@H](CC(C)C)C(=O)N[C@@H](CC(N)=O)C(=O)N[C@H](C(=O)N[C@@H](CC(C)C)C(=O)N[C@@H](Cc1ccc(O)cc1)C(=O)NCC(=O)N1CCC[C@H]1C(=O)N[C@@H](CC(=O)O)C(=O)N[C@@H](CC(=O)O)C(=O)N1CCC[C@H]1C(=O)O)C(C)C [Peptide 9019.0127]
Purified HLA DRB1*1501
  IC50: 5700 nM
Purified HLA DRB5*0101
  IC50: > 20000 nM

## CC[C@H](C)[C@H](NC(=O)[C@H](CCC(=O)O)NC(=O)[C@@H](NC(=O)[C@H](CC(C)C)NC(=O)[C@H](CO)NC(=O)[C@H](CCCNC(=N)N)NC(=O)[C@H](CC(C)C)NC(=O)[C@H](CCC(N)=O)NC(=O)[C@H](CC(C)C)NC(=O)[C@H](CCC(=O)O)NC(=O)[C@H](CCCNC(=N)N)NC(=O)[C@H](CC(C)C)NC(=O)CNC(=O)CNC(=O)[C@@H]1CCCN1)[C@@H](C)O)C(=O)O [Peptide 9019.0038]
Purified HLA DRB1*0405
  IC50: 110 nM
Purified HLA DRB1*1501
  IC50: 4410 nM
